Experimental data taken from US6706740B2, “Fungicidal heterocyclic aromatic amides and their compositions, methods of use and preparation” (Dow AgroSciences LLC, priority 1999, dated 2004).

System: Ustilago maydis (USTIMA)
Experiment: microbe, parasite or virus in culture
Format: cell-based
Settings: Mycosarcoma maydis, read-out: USTIMA in vitro Growth Inhibition

| SMILES | inhibition at 25 ppm [%] |
| --- | --- |
| O=C(Nc1nccs1)c1ncccc1O [Compound 235] | > 80 |
| COc1ccnc(C(=O)N[C@H]2COC(=O)[C@H](Cc3ccccc3)C[C@H](C)OC2=O)c1O [Compound 382] | < 80 |
| COc1ccnc(C(=O)N[C@H]2CO[C@@H](C(C)Cc3ccc(C(C)(C)C)cc3)OC2)c1OC(C)=O (stereo partly shown) [Compound 593] | < 80 |
| COc1ccnc(C(=O)NC2CCN(C(=O)c3ccccc3)CC2)c1O [Compound 308] | < 80 |

System: Rhizoctonia solani (RHIZSO)
Experiment: microbe, parasite or virus in culture
Format: cell-based
Settings: Rhizoctonia solani, read-out: RHIZSO in vitro Growth Inhibition

| SMILES | inhibition at 25 ppm [%] |
| --- | --- |
| O=C(Nc1nccs1)c1ncccc1O [Compound 235] | > 80 |
| COc1ccnc(C(=O)N[C@H]2COC(=O)[C@H](Cc3ccccc3)C[C@H](C)OC2=O)c1O [Compound 382] | < 80 |
| COc1ccnc(C(=O)N[C@H]2CO[C@@H](C(C)Cc3ccc(C(C)(C)C)cc3)OC2)c1OC(C)=O (stereo partly shown) [Compound 593] | < 80 |

System: Magnaporthe grisea (Pyricularia oryzae—PYRIOR)
Experiment: microbe, parasite or virus in culture
Format: cell-based
Settings: Pyricularia oryzae, read-out: PYRIOR in vitro Growth Inhibition

| SMILES | inhibition at 25 ppm [%] |
| --- | --- |
| O=C(Nc1nccs1)c1ncccc1O [Compound 235] | > 80 |
| COc1ccnc(C(=O)N[C@H]2COC(=O)[C@H](Cc3ccccc3)C[C@H](C)OC2=O)c1O [Compound 382] | < 80 |
| COc1ccnc(C(=O)N[C@H]2CO[C@@H](C(C)Cc3ccc(C(C)(C)C)cc3)OC2)c1OC(C)=O (stereo partly shown) [Compound 593] | < 80 |

System: Puccinia recondita—PUCCRT
Experiment: Brown Rust of Wheat, in vivo whole plant, 24 Hour Protectant
Settings: Puccinia; 100 ppm spray, 24 hour protectant, wheat; control of fungal infection vs untreated plants; read-out: PUCCRT in vivo 1 Day Protectant

| SMILES | pest or weed control at 100 ppm [%] |
| --- | --- |
| O=C(Nc1nccs1)c1ncccc1O [Compound 235] | < 25 |
| COc1ccnc(C(=O)NC2CCN(C(=O)c3ccccc3)CC2)c1O [Compound 308] | < 25 |

Same assay, conditions: Puccinia; 100 ppm spray, wheat, 24 hour protectant; control of fungal infection vs untreated plants; read-out: PUCCRT in vivo 1 Day Protectant

| SMILES | pest or weed control at 100 ppm [%] |
| --- | --- |
| COc1ccnc(C(=O)N[C@H]2COC(=O)[C@H](Cc3ccccc3)C[C@H](C)OC2=O)c1O [Compound 382] | 25 to 74 |

Same assay, conditions: wheat plants sprayed at 100 ppm, inoculated after 24 hours; control of fungal infection vs untreated plants

| SMILES | PUCCRT in vivo 1 Day Protectant |
| --- | --- |
| COc1ccnc(C(=O)N[C@H]2CO[C@@H](C(C)Cc3ccc(C(C)(C)C)cc3)OC2)c1OC(C)=O (stereo partly shown) [Compound 593] | + + |

System: Phytophthora infestans (PHYTIN)
Experiment: microbe, parasite or virus in culture
Format: cell-based
Settings: Phytophthora infestans, read-out: PHYTIN in vitro Growth Inhibition

| SMILES | inhibition at 25 ppm [%] |
| --- | --- |
| O=C(Nc1nccs1)c1ncccc1O [Compound 235] | > 80 |
| COc1ccnc(C(=O)N[C@H]2COC(=O)[C@H](Cc3ccccc3)C[C@H](C)OC2=O)c1O [Compound 382] | < 80 |
| COc1ccnc(C(=O)N[C@H]2CO[C@@H](C(C)Cc3ccc(C(C)(C)C)cc3)OC2)c1OC(C)=O (stereo partly shown) [Compound 593] | < 80 |

System: Leptosphaeria nodorum—LEPTNO
Experiment: Glume Blotch of Wheat, in vivo whole plant, 24 Hour Protectant
Settings: 100 ppm spray, wheat, 24 hour protectant; control of fungal infection vs untreated plants

| SMILES | LEPTNO in vivo 1 Day Protectant |
| --- | --- |
| COc1ccnc(C(=O)N[C@H]2COC(=O)[C@H](Cc3ccccc3)C[C@H](C)OC2=O)c1O [Compound 382] | + + |

Same assay, conditions: Leptosphaeria; 100 ppm spray, 24 hour protectant, wheat; control of fungal infection vs untreated plants; read-out: LEPTNO in vivo 1 Day Protectant

| SMILES | pest or weed control at 100 ppm [%] |
| --- | --- |
| O=C(Nc1nccs1)c1ncccc1O [Compound 235] | < 25 |
| COc1ccnc(C(=O)NC2CCN(C(=O)c3ccccc3)CC2)c1O [Compound 308] | < 25 |

System: Stagonospora nodorum (Leptosphaeria nodorum—LEPTNO)
Experiment: In vitro fungal growth inhibition, Stagonospora nodorum (LEPTNO)
Format: cell-based
Settings: Leptosphaeria; 25 ppm in growth medium; read-out: LEPTNO in vitro Growth Inhibition

| SMILES | inhibition at 25 ppm [%] |
| --- | --- |
| O=C(Nc1nccs1)c1ncccc1O [Compound 235] | > 80 |
| COc1ccnc(C(=O)N[C@H]2COC(=O)[C@H](Cc3ccccc3)C[C@H](C)OC2=O)c1O [Compound 382] | < 80 |

Same assay, conditions: Leptosphaeria; 25 ppm in the growth medium; read-out: LEPTNO in vitro Growth Inhibition

| SMILES | inhibition at 25 ppm [%] |
| --- | --- |
| COc1ccnc(C(=O)N[C@H]2CO[C@@H](C(C)Cc3ccc(C(C)(C)C)cc3)OC2)c1OC(C)=O (stereo partly shown) [Compound 593] | < 80 |

System: Phytophthora infestans—PHYTIN
Experiment: whole plant or invertebrate
Format: in vivo
Settings: Phytophthora, in Solanum lycopersicum, 24 h, read-out: PHYTIN in vivo 1 Day Protectant

| SMILES | pest or weed control at 100 ppm [%] |
| --- | --- |
| O=C(Nc1nccs1)c1ncccc1O [Compound 235] | < 25 |
| COc1ccnc(C(=O)N[C@H]2CO[C@@H](C(C)Cc3ccc(C(C)(C)C)cc3)OC2)c1OC(C)=O (stereo partly shown) [Compound 593] | < 25 |
| COc1ccnc(C(=O)NC2CCN(C(=O)c3ccccc3)CC2)c1O [Compound 308] | < 25 |

System: Mycosphaerella graminicola (Septoria tritici—SEPTTR)
Experiment: In vitro fungal growth inhibition, Mycosphaerella graminicola (SEPTTR)
Format: cell-based
Settings: Zymoseptoria tritici; 25 ppm in growth medium; read-out: SEPTTR in vitro Growth Inhibition

| SMILES | inhibition at 25 ppm [%] |
| --- | --- |
| O=C(Nc1nccs1)c1ncccc1O [Compound 235] | > 80 |
| COc1ccnc(C(=O)N[C@H]2COC(=O)[C@H](Cc3ccccc3)C[C@H](C)OC2=O)c1O [Compound 382] | > 80 |

Same assay, conditions: Zymoseptoria tritici; 25 ppm in the growth medium; read-out: SEPTTR in vitro Growth Inhibition

| SMILES | inhibition at 25 ppm [%] |
| --- | --- |
| COc1ccnc(C(=O)N[C@H]2CO[C@@H](C(C)Cc3ccc(C(C)(C)C)cc3)OC2)c1OC(C)=O (stereo partly shown) [Compound 593] | < 80 |

System: Erysiphe graminis—ERYSGT
Experiment: Powdery Mildew of Wheat, in vivo whole plant, 24 Hour Protectant
Settings: Erysiphe; 100 ppm spray, 24 hour protectant, wheat; control of fungal infection vs untreated plants; read-out: ERYSGT in vivo 1 Day Protectant

| SMILES | pest or weed control at 100 ppm [%] |
| --- | --- |
| O=C(Nc1nccs1)c1ncccc1O [Compound 235] | < 25 |
| COc1ccnc(C(=O)NC2CCN(C(=O)c3ccccc3)CC2)c1O [Compound 308] | 25 to 74 |

Same assay, conditions: Erysiphe; 100 ppm spray, wheat, 24 hour protectant; control of fungal infection vs untreated plants; read-out: ERYSGT in vivo 1 Day Protectant

| SMILES | pest or weed control at 100 ppm [%] |
| --- | --- |
| COc1ccnc(C(=O)N[C@H]2COC(=O)[C@H](Cc3ccccc3)C[C@H](C)OC2=O)c1O [Compound 382] | < 25 |

Same assay, conditions: Erysiphe; wheat plants sprayed at 100 ppm, inoculated after 24 hours; control of fungal infection vs untreated plants; read-out: ERYSGT in vivo 1 Day Protectant

| SMILES | pest or weed control at 100 ppm [%] |
| --- | --- |
| COc1ccnc(C(=O)N[C@H]2CO[C@@H](C(C)Cc3ccc(C(C)(C)C)cc3)OC2)c1OC(C)=O (stereo partly shown) [Compound 593] | < 25 |

System: Septoria tritici—SEPTTR
Experiment: Leaf Blotch of Wheat, in vivo whole plant, 24 Hour Protectant
Settings: Zymoseptoria tritici, 24 h, 100 ppm spray, 24 hour protectant, wheat; control of fungal infection vs untreated plants; read-out: SEPTTR in vivo 1 Day Protectant

| SMILES | pest or weed control at 100 ppm [%] |
| --- | --- |
| O=C(Nc1nccs1)c1ncccc1O [Compound 235] | < 25 |
| COc1ccnc(C(=O)NC2CCN(C(=O)c3ccccc3)CC2)c1O [Compound 308] | 25 to 74 |

Same assay, conditions: Zymoseptoria tritici, 24 h, 100 ppm spray, wheat, 24 hour protectant; control of fungal infection vs untreated plants; read-out: SEPTTR in vivo 1 Day Protectant

| SMILES | pest or weed control at 100 ppm [%] |
| --- | --- |
| COc1ccnc(C(=O)N[C@H]2COC(=O)[C@H](Cc3ccccc3)C[C@H](C)OC2=O)c1O [Compound 382] | 25 to 74 |

Same assay, conditions: Zymoseptoria tritici, 24 h, wheat plants sprayed at 100 ppm, inoculated after 24 hours; control of fungal infection vs untreated plants; read-out: SEPTTR in vivo 1 Day Protectant

| SMILES | pest or weed control at 100 ppm [%] |
| --- | --- |
| COc1ccnc(C(=O)N[C@H]2CO[C@@H](C(C)Cc3ccc(C(C)(C)C)cc3)OC2)c1OC(C)=O (stereo partly shown) [Compound 593] | 25 to 74 |
